According to patent publication US20100086519A1, “Treatment of Hepatitis C Infection With Metalloporphyrins” (The Charlotte-Mecklenburg Hospital Authority d/b/a …, priority 2008, published 2010):

Tests used:
HCV NS5A protein [1] = biological target: T1, HCV NS5A protein (Hepatitis C virus genotype 1b, UniProt Q9WMX2); experiment: NS5A protein levels by Western blot in 9-13 cells; type: cell-based; design: processed into structural (C, E1, E2) and nonstructural (NS2, NS3, NS4A, NS4B, NS5A and NS5B) proteins; expressed in transfected cells; host or cells: 9-13 cells (human hepatoma cells with a replicating HCV NS3-NS5B region)
T1 sequence (Q9WMX2 1973-2419): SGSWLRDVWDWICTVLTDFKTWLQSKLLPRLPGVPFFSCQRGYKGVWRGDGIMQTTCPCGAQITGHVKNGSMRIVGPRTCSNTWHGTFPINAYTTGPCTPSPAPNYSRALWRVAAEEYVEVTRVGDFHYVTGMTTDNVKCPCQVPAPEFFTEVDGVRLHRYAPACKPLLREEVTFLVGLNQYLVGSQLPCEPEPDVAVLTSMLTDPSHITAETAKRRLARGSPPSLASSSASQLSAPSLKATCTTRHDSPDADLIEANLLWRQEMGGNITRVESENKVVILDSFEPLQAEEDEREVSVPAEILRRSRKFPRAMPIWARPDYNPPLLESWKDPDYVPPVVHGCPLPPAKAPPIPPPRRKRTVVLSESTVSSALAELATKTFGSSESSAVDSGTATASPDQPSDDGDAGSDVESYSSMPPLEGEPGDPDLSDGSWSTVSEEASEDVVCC
Source text: Bartenschlager (University of Heidelberg, Heidelberg, Germany).
Biochim Biophys Acta 2008; 1779:195-203.

HCV NS5A protein [2] = biological target: T1, HCV NS5A protein; experiment: polyubiquitination of NS5A by immunoprecipitation and immunoblot in 9-13 cells; type: cell-based; design: processed into structural (C, E1, E2) and nonstructural (NS2, NS3, NS4A, NS4B, NS5A and NS5B) proteins; expressed in transfected cells; host or cells: 9-13 cells (human hepatoma cells with a replicating HCV NS3-NS5B region)
Experimental: Immunoprecipitation was carried out according to the Manufacturer's protocol. Briefly, cells were harvested in cold radioimmunoprecipitation assay (RIPA) buffer (50 mM Tris-HC1 [pH 7.4], 150 mM NaCl, 1 mM EDTA, 0.25% sodium deoxycholate, 1% IGEPAL CA-630, 1 mM PMSF, 1 mM NaF, 1 mM Na3VO4 and 1 μg/ml each of aprotinin, leupeptin, and pepstatin). The samples were pre-cleared with Protein A/G Agarose for 10 min at 4° C. and subsequently incubated while gently rotating at 4° C. overnight with primary antibody, followed by Protein A/G beads for 1 h at 4° C. Beads were spun down and washed twice with RIPA buffer. Protein samples were separated by electrophoresis on 4-15% SDS-PAGE gels, and transferred to PVDF membrane, conjugated ubiquitin was detected as described for Western blot analysis using anti-ubiquitin antibody.
This Example investigates whether ZnMP induces polyubquitination of NS5A to gain insight into the mechanism by which ZnMP mediates degradation of NS5A protein. 9-13 cells were treated without or with 10 μM ZnMP for 4 h. Total proteins were extracted for subsequent Western blot or immunoprecipitation analysis. Immunoprecipitation was carried out using anti-HCV NS5A antibody. Ubiquitin conjugation of NS5A [polyubiquitinated NS5A (Ub)n-NS5A]was examined with immunoprecipitation using an anti-HCV NS5A antibody and immunoblot using an anti-ubiquitin antibody. […] In FIG. 6B, ubiquitination of NS5A following ZnMP treatment, or vehicle (DMSO) only was compared. The positions of molecular mass markers (in kilodaltons) are indicated to the left of the gel. The bracket indicates polyubiquitinated NS5A. Asterisks indicate cross-reacting immunoglobulin heavy chain. […] These bands may represent polyubiquitinated NS5A.

CCC1=C(C)c2cc3[nH]c(cc4nc(cc5[n-]c(cc1n2)c(C)c5CCC(=O)[O-])C(CCC(=O)[O-])=C4C)c(C)c3CC.[H+].[Zn+2] [ZnMP, Zinc mesoporphyrin]
NS5A protein levels (HCV NS5A protein [1]; 9-13 cells, 10 μM ZnMP alone, 10 and 24 hours, FIG. 9B): slightly increased
NS5A protein levels (HCV NS5A protein [1]; 9-13 cells, 10 μM ZnMP alone, as little as 2 hours, FIG. 9B): rapid and marked down-regulation
NS5A protein levels, time course (HCV NS5A protein [1]; 9-13 cells, 10 μM, 0, 2, 4, 6 h, FIG. 2B): markedly and rapidly decreased
NS5A protein levels before immunoprecipitation (HCV NS5A protein [1]; 9-13 cells, 10 μM, 4 h, FIG. 6A): down-regulation
NS5A protein levels (HCV NS5A protein [1]; 9-13 cells, 10 μM, 4 hours, FIG. 2A): decreased
NS5A protein levels (HCV NS5A protein [1]; 9-13 cells, ZnMP 0, 1, 5, 10 μM, 4 hours, FIG. 1A): marked decrease
reduction of NS5A protein levels (HCV NS5A protein [1]; about 1 μM, 4 hours, stated for bar graphs of FIGS. 1A/1B (9-13 and Con1 cells)): about 60%
polyubquitination of NS5A (summary statement) (HCV NS5A protein [2]): induce polyubquitination
polyubquitination of NS5A (HCV NS5A protein [2]; 9-13 cells, 10 μM, 4 h, FIG. 6B): induce polyubquitination
